Molecular target: T1, P-glycoprotein (P-gp) (Homo sapiens, UniProt P08183)
T1 construct: gene ABCB1; P-gp membranes (Pgp-Glo assay system)
Experiment: Pgp-Glo ATPase stimulation at […] (membranes)
Assay type: biochemical

T1 sequence (P08183 whole entry): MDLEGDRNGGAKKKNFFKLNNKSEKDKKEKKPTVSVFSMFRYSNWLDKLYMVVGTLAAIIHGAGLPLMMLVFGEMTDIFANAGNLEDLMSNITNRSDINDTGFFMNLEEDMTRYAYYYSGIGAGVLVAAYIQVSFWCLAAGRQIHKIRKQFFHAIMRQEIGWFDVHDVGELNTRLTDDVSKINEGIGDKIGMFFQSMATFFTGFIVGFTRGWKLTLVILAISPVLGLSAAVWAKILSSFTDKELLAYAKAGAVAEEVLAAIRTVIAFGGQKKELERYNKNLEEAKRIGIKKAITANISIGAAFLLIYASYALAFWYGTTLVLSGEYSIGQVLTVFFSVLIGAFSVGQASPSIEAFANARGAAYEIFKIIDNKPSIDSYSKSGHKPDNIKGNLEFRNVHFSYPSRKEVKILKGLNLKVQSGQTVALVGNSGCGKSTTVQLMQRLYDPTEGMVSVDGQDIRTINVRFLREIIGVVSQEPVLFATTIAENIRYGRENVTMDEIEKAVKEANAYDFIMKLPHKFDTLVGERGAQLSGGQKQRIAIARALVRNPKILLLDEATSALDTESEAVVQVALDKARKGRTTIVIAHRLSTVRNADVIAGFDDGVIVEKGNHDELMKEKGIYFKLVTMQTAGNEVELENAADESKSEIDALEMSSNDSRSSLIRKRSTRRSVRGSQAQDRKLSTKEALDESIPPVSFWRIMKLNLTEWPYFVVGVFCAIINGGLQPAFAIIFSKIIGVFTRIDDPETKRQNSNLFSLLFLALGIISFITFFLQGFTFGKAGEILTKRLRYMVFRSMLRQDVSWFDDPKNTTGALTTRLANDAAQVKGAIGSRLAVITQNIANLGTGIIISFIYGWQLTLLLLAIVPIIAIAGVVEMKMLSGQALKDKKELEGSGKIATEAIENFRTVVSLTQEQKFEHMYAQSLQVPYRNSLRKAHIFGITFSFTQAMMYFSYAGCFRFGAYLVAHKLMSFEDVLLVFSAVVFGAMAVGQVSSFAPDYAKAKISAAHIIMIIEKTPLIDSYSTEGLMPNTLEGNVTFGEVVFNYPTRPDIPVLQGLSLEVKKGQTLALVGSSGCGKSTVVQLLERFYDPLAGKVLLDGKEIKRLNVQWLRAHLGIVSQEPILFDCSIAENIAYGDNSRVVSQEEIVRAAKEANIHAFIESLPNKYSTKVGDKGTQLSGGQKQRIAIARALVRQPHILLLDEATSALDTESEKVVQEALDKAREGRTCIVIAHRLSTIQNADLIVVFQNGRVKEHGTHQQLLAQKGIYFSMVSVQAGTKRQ

CC[C@]1(O)C[C@H]2CN(CCc3c([nH]c4ccccc34)[C@@](C(=O)OC)(c3cc4c(cc3OC)N(C=O)[C@H]3[C@@](O)(C(=O)OC)[C@H](OC(C)=O)[C@]5(CC)C=CCN6CC[C@]43[C@@H]65)C2)C1 [vincristine]
Pgp-Glo ATPase stimulation at 2 μM (membranes): verapamil and vincristine induced an obvious increase in activity of P-gp ATPase
